According to publication PMC10923054, “Antiplasmodial peptaibols act through membrane directed mechanisms” (Cell Chemical Biology, 2024):
Values belong to the compound of their own block, whether it stands above or below them.

What was measured:
[1] = system: wild-type YFP-expressing NF54; experiment: MDR1 compound susceptibility assay, control line; type: cell-based, P. falciparum; conditions: Plasmodium falciparum, NF54, MDR1, 72 h, read-out: IC50 in the wild-type YFP-expressing NF54
Description: (§1) As a control cell line, a parasite line expressing an aptamer-regulatable fluorescent protein integrated in the cg6 locus[84] was assayed in parallel. Synchronous ring-stage parasites in the presence (0.5 μM) and absence of aTc were dispensed into 384-well polystyrene microplates (Corning®), and compounds added using the Janus® platform (PerkinElmer). DMSO- and DHA (0.5 μM) served as normalization controls for maximal and minimum signal. Luminescence was measured after 72 h and IC50 values were obtained from normalized dose-response curves using GraphPad Prism Version 8.

PfMDR1 cKD parasite line = experiment: MDR1 compound susceptibility assay (Renilla luciferase); type: cell-based, P. falciparum
Source text: A conditional knockdown parasite line was generated for the P. falciparum multi-drug resistance 1 (MDR1; PF3D7_0523000) following previously described procedures.[84]^,[85] The native PfMDR1 locus was engineered using CRISPR/SpCas9 to afford transcriptional fusion of 10 tandem TetR-DOZI binding aptamers in the 3′UTR for anhydrotetracycline (aTc)-dependent regulation of PfMDR1 expression.
as §1

P. falciparum Dd2 = experiment: Phenotypic screen: asexual blood stage EC50 determination (SYBR Green I); type: cell-based; conditions: values in Data S1 (not shown)
Description: Asexual blood stage parasites grown in the Chakrabarti laboratory were cultured based on a protocol by Trager and Jensen[57] with some modifications.[35] Culture was maintained at 4% hematocrit with human A+ whole blood obtained from the Florida OneBlood, in RPMI 1640 supplemented with 25 mM HEPES pH 7.4, 26 mM NaHCO3, 2% dextrose, 15 mg/L hypoxanthine, 25 mg/L gentamycin, and 0.5% Albumax II. Incubator conditions remained at 37°C and 5% CO2, 5% O2, 90% N2, or 95% air. For comparison screening using serum vs Albumax II, culture media was changed from RPMI with 0.5% Albumax II to RPMI with 10% human serum and maintained for a minimum of 2 weeks prior to assay use.
(§2) Inhibitor EC50 determination in 3D7 and Dd2 was performed as discussed in,[35] based on established protocols.[60] Assays utilized asynchronous culture at 1% parasitemia, 1% hematocrit. Culture was incubated with compound dilutions for 72 h followed by freezing at −80°C to promote lysis, then thawing and incubation for 45 min–1 h with 1× SYBR Green I in a lysis buffer (20 mM Tris-HCL, 0.08% saponin, 5 mM EDTA, and 0.8% Triton X-100). Fluorescence was read 485 nm excitation, 530 nm emission on a Synergy Neo2 multimode reader (BioTek Winsooki, VT) and EC50 curves were generated using CDD Vault (https://www.collaborativedrug.com/).

[2] = system: P. falciparum asexual blood stage parasites grown in 0.5% Albumax II; experiment: Antiplasmodial activity with Albumax II media; type: cell-based; conditions: Plasmodium falciparum; RPMI with 0.5% Albumax II; mean ± SEM from 3 biological replicates
Description: (§3) Asexual blood stage parasites grown in the Chakrabarti laboratory were cultured based on a protocol by Trager and Jensen[57] with some modifications.[35] […] For comparison screening using serum vs Albumax II, culture media was changed from RPMI with 0.5% Albumax II to RPMI with 10% human serum and maintained for a minimum of 2 weeks prior to assay use.
as §2

[3] = concentrations up to 200 μM; propionate buffer pH 5.2, 16 h, 37°C; biological triplicate
Description: Assay plates were incubated at 37°C with gentle shaking for 16 h. A combination of 7.5% SDS in a 0.1 M bicarbonate buffer (pH 9.1) was then added to microtiter wells at a 1:3 ratio with gentle mixing. Plates were incubated for 10 min to allow crystals to settle before taking 50 μL of supernatant and adding it to 200 μL of 2.5% SDS in a 0.1 M bicarbonate buffer, pH 9.1. After mixing, absorbances were read at 405 nm on a Synergy Neo2 multimode reader (BioTek, Winsooki, VT). […] Images of the 200 μM treatment or control prior to SDS quenching were taken using a Nikon Eclipse TE200 inverted microscope.

[4] = system: P. falciparum asexual blood stage parasites grown in 10% human serum; experiment: Antiplasmodial activity with serum media; type: cell-based; conditions: Plasmodium falciparum, 336 h; RPMI with 10% human serum, maintained minimum 2 weeks; mean ± SEM from 3 biological replicates
Description: as §3, §2

Compound: OC(c1cc(C(F)(F)F)nc2c(C(F)(F)F)cccc12)C1CCCCN1 (stereo not shown) [mefloquine, reference compound]
- IC50 [1]: 0.4 nM
- IC50 (PfMDR1 cKD parasite line; Plasmodium falciparum, MDR1, 72 h, read-out: IC50 when the protein was knocked down): 5 nM
- shift in sensitivity upon PfMDR1 knockdown (PfMDR1 cKD parasite line; with (0.5 μM) vs without aTc, 72 h, luminescence): ~12 fold

Compound: Ac-Aib-L-Asn-L-Leu-L-Ile-Aib-L-Pro-D-Iva-L-Leu-Aib-L-Pro-L-Leu-NH2 [Harzianin HB I – amide, synthesized amide of an 11-AA peptaibol]
- activity of new isomers relative to their original counterparts (P. falciparum Dd2): decreased inhibition

- EC50 [2]: 160 ± 10 nM
- EC50 [4]: 100 ± 20 nM
Compound: CCN(CC)CCCC(C)Nc1ccnc2cc(Cl)ccc12 (stereo not shown) [CQ, chloroquine, reference compound]
- inhibition of β-hematin crystallization [3]: clear, dose-dependent inhibition
